Experimental findings from US7741354B2, “Inhibitors of glutaminyl cyclase” (Probiodrug AG, priority 2006, dated 2010) are described below.

In the first assay the target is hQC (Homo sapiens, UniProt Q16769). Nature of the assay: Fluorometric (fluorescent) assay of hQC inhibition, IC50. Format: biochemical. The note with it: hQC inhibition; read-out: IC50. The method, boiled down: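 Two coupled fluorometric formats at 30° C, pH 8.0 Tris/HCl with EDTA: H-Gln-βNA at 0.2 mM read at 320/410 nm, or H-Gln-AMC at varied levels read at 380/460 nm, each started by adding QC.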
hQC, sequence (Q16769 29-361): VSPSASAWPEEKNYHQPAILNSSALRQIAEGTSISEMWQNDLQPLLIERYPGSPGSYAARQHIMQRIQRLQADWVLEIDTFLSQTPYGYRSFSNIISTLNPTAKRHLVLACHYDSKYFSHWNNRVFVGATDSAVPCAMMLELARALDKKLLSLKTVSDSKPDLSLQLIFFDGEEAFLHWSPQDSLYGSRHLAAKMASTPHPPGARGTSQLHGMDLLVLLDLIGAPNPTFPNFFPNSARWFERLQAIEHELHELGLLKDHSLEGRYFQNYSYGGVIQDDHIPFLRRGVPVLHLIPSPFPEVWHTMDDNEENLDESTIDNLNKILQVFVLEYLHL
`CC(C)(C)n1nnnc1C(Nc1ccc2[nH]cnc2c1)c1csc2ccccc12` (centres unmarked) [compound 123]: the IC50 came out at 8.5 µM.

Regarding `CC1(C)OCC(Cn2nnnc2C(Nc2ccc3[nH]cnc3c2)c2cnc3ccccc3c2)O1` (centres unmarked) [compound 156, (1H-Benzoimidazol-5-yl)-{[1-(2,2-dimethyl-[1,3]dioxolan-4-ylmethyl)-1H-tetrazol-5-yl]-quinolin-3-yl-methyl}-amine], the IC50 is 4.9 µM.

For `C1=CCC(C(Nc2ccc3[nH]cnc3c2)c2nnnn2CCc2cccs2)CC1` (centres unmarked) [compound 167, (1H-Benzoimidazol-5-yl)-{cyclohex-3-enyl-[1-(2-thiophen-2-yl-ethyl)-1H-tetrazol-5-yl]-methyl}-amine], the IC50 worked out at 8.5 µM.

Take `OCc1ccc(C(Nc2ccc3[nH]cnc3c2)c2nnnn2-c2ccccc2OCc2ccccc2)o1` (centres unmarked) [compound 143, (5-{(1H-Benzoimidazol-5-ylamino)-[1-(2-benzyloxy-phenyl)-1H-tetrazol-5-yl]-methyl}-furan-2-yl)-methanol]: the IC50 came to 4.9 µM.

As to `O=C(Cn1nnnc1C(Nc1ccc2[nH]cnc2c1)c1ccc(Br)cc1)NCCc1c[nH]c2ccccc12` (centres unmarked) [compound 200, 2-{5-[(1H-Benzoimidazol-5-ylamino)-(4-bromo-phenyl)-methyl]-tetrazol-1-yl}-N-[2-(1H-indol-3-yl)-ethyl]-acetamide], the IC50 was determined as 2.2 µM.

On to `CSc1ccc(C(Nc2ccc3[nH]cnc3c2)c2nnnn2CC2CCCO2)cc1` (centres unmarked) [compound 140, (1H-Benzoimidazol-5-yl)-{(4-methylsulfanyl-phenyl)-[1-(tetrahydro-furan-2-ylmethyl)-1H-tetrazol-5-yl]-methyl}-amine], for which the IC50 was determined as 6.7 µM.

On to `Oc1ccc(C(Nc2ccc3[nH]cnc3c2)c2nnnn2Cc2ccc(Cl)cc2)cc1` (centres unmarked) [compound 191, 4-{(1H-Benzoimidazol-5-ylamino)-[1-(4-chloro-benzyl)-1H-tetrazol-5-yl]-methyl}-phenol], for which the IC50 came to 3.1 µM.

With `c1nc2cc(NC(c3ccc4c(c3)OCO4)c3nnnn3CC3CCCO3)ccc2[nH]1` (centres unmarked) [compound 118], the IC50 amounted to 6.7 µM.

As to `CCOC(=O)C1CCCCC1n1nnnc1C(Nc1ccc2[nH]cnc2c1)c1ccc(C)c(C)c1` (centres unmarked) [compound 155], the IC50 was determined as 4.9 µM.

As for `O=c1c(C(Nc2ccc3[nH]cnc3c2)c2nnnn2CC2CCCO2)coc2ccccc12` (centres unmarked) [compound 159, 3-{(1H-Benzoimidazol-5-ylamino)-[1-(tetrahydro-furan-2-ylmethyl)-1H-tetrazol-5-yl]-mthyl}-chromen-4-one], the IC50 stood at 9.4 µM.

The same assay, now with this note: purified compound from preparative synthesis; fluorescent assay; read-out: IC50 hQC.
On to `CC(C)(C)Cn1nnnc1C(NCCCn1ccnc1)c1ccc2cccc(O)c2n1` (centres unmarked) [Compound 64, 2-[[1-(2,2-Dimethyl-propyl)-1H-tetrazol-5-yl]-(3-imidazol-1-yl-propylamino)-methyl]-quinolin-8-ol], for which the IC50 worked out at 1.03 µM.

Still in this assay, the particulars now being: read-out: IC50.
In the case of `Clc1ccc(Cn2nnnc2C(NCCCn2ccnc2)c2ccc3ccccc3n2)cc1` (centres unmarked) [compound 7, {[1-(4-Chloro-benzyl)-1H-tetrazol-5-yl]-quinolin-2-yl-methyl}-(3-imidazol-1-yl-propyl)-amine], the IC50 is 1.3 µM.

With `Cn1nnnc1C(NCCCn1ccnc1)c1ccc2[nH]ccc2c1` (centres unmarked) [compound 30, (3-Imidazol-1-yl-propyl)-[(1H-indol-5-yl)-(1-methyl-1H-tetrazol-5-yl)-methyl]-amine], the IC50 stood at 4 µM.

With `CCc1ccc(C(Nc2ccc3[nH]cnc3c2)c2nnnn2Cc2cccnc2)cc1` (centres unmarked) [compound 82, (1H-Benzoimidazol-5-yl)-[(4-ethyl-phenyl)-(1-pyridin-3-ylmethyl-1H-tetrazol-5-yl)-methyl]-amine], the IC50 is 4 µM.

On to `CC(C)(C)Cn1nnnc1C(NCCCn1ccnc1)c1ccc2[nH]ccc2c1` (centres unmarked) [compound 65, [[1-(2,2-Dimethyl-propyl)-1H-tetrazol-5-yl]-(1H-indol-5-yl)-methyl]-(3-imidazol-1-yl-propyl)-amine], for which the IC50 was determined as 4.9 µM.

Turning to `COC(=O)Cn1nnnc1C(NCCCn1ccnc1)c1ccc(Cl)c(Cl)c1` (centres unmarked) [compound 50, {5-[(3,4-Dichloro-phenyl)-(3-imidazol-1-yl-propylamino)-methyl]-tetrazol-1-yl}-acetic methyl ester], the IC50 was found to be 4 µM.

As for `c1ccc2oc(C(NCCCn3ccnc3)c3nnnn3C[C@@H]3CCCO3)cc2c1` (stereo partly drawn) [compound 15, (Benzofuran-2-yl-{1-[(S)-1-(tetrahydro-furan-2-yl)methyl]-1H-tetrazol-5-yl}-methyl)-(3-imidazol-1-yl-propyl)-amine], the IC50 came out at 6.7 µM.

In the case of `c1cn(CCCNC(c2ccc3[nH]ccc3c2)c2nnnn2C2CC2)cn1` (centres unmarked) [compound 69, [(1-Cyclopropyl-1H-tetrazol-5-yl)-(1H-indol-5-yl)-methyl]-(3-imidazol-1-yl-propyl)-amine], the IC50 was determined as 4.9 µM.

As for `Cc1ccc(C(NCCCn2ccnc2)c2nnnn2Cc2ccc(Cl)cc2)cc1C` (centres unmarked) [compound 2, [[1-(4-Chloro-benzyl)-1H-tetrazol-5-yl]-(3,4-dimethyl-phenyl)-methyl]-(3-imidazol-1-yl-propyl)-amine], the IC50 was 6.7 µM.

Turning to `Cc1ccc2c(C(NCCCn3ccnc3)c3nnnn3C[C@@H]3CCCO3)c[nH]c2c1` (stereo partly drawn) [compound 16, (3-Imidazol-1-yl-propyl)-((6-methyl-1H-indol-3-yl)-{1-[(S)-1-(tetrahydro-furan-2-yl)methyl]-1H-tetrazol-5-yl}-methyl)-amine], the IC50 amounted to 7.6 µM.

On to `C=CCn1nnnc1C(NCCCn1ccnc1)c1ccc2[nH]ccc2c1` (centres unmarked) [compound 46, [(1-Allyl-1H-tetrazol-5-yl)-(1H-indol-5-yl)-methyl]-(3-imidazol-1-yl-propyl)-amine], for which the IC50 came to 7.6 µM.

Take `CC(C)(C)Cn1nnnc1C(NCCCn1ccnc1)c1ccc2cccc(O)c2n1` (centres unmarked) [Compound 64, 2-[[1-(2,2-Dimethyl-propyl)-1H-tetrazol-5-yl]-(3-imidazol-1-yl-propylamino)-methyl]-quinolin-8-ol]: the IC50 came out at 0.4 µM.

Turning to `CCOC(=O)C1CCCCC1n1nnnc1C(Nc1ccc2[nH]cnc2c1)c1ccc(Cl)c(F)c1` (centres unmarked) [compound 84], the IC50 was found to be 6.7 µM.

For `Clc1ccc(C(NCCCn2ccnc2)c2nnnn2C[C@@H]2CCCO2)cc1Cl` (some centres unmarked) [compound 10], the IC50 came out at 4 µM.

On to `COCCCn1nnnc1C(NCCCn1ccnc1)c1cc(O)ccc1C` (centres unmarked) [compound 33, 3-{(3-Imidazol-1-yl-propylamino)-[1-(3-methoxy-propyl)-1H-tetrazol-5-yl]-methyl}-4-methyl-phenol], for which the IC50 turned out to be 4 µM.

For `COC(=O)Cn1nnnc1C(NCCCn1ccnc1)c1ccc2[nH]ccc2c1` (centres unmarked) [compound 54, {5-[(3-Imidazol-1-yl-propylamino)-(1H-indol-5-yl)-methyl]-tetrazol-1-yl}-acetic methyl ester], the IC50 worked out at 5.8 µM.

`CC(CC(Nc1ccc2[nH]cnc2c1)c1nnnn1C(C)(C)C)c1ccccc1` (centres unmarked) [compound 106, (1H-Benzoimidazol-5-yl)-[1-(1-tert-butyl-1H-tetrazol-5-yl)-3-phenyl-butyl]-amine]: the concentration for half-maximal inhibition (IC50) stood at 6.7 µM.

Turning to `COCCCn1nnnc1C(NCCCn1ccnc1)c1ccc2cccc(O)c2n1` (centres unmarked) [compound 34, 2-{(3-Imidazol-1-yl-propylamino)-[1-(3-methoxy-propyl)-1H-tetrazol-5-yl]-methyl}-quinolin-8-ol], the IC50 was found to be 2.2 µM.

Turning to `COCCCn1nnnc1C(NCCCn1ccnc1)c1ccc2ccccc2n1` (centres unmarked) [compound 36, (3-Imidazol-1-yl-propyl)-{[1-(3-methoxy-propyl)-1H-tetrazol-5-yl]-quinolin-2-yl-methyl}-amine], the IC50 turned out to be 3.1 µM.

Usually IC50 stands for the point on the concentration scale where inhibition reaches its midpoint.
